The source made the active and inactive calls.
What was measured:
Kallikrein-7 = Kallikrein-7 (Homo sapiens, UniProt P49862); assay: Fluorescence Intensity-based biochemical primary high throughput dose response assay to identify activators of kallikrein-7 (K7) zymogen.
[1] = molecular target: C-X-C chemokine receptor type 4 (Homo sapiens, UniProt P61073); assay: SAR analysis of small molecule antagonists of the CXCR6 receptor using a CXCR4 receptor luminescent beta-arrestin counterscreen.; type: functional
Chain of C-X-C chemokine receptor type 4 (P61073 whole entry): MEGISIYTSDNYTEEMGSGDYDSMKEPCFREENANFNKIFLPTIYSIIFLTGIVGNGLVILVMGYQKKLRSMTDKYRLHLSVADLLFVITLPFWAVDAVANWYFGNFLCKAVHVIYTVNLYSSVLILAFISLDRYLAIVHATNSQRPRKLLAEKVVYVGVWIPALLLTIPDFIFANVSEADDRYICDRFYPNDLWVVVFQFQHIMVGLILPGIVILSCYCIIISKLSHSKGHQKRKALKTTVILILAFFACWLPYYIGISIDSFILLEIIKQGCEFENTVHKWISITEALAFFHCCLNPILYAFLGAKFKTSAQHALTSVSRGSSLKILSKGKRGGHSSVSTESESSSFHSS

[2] = molecular target: T1, C-C chemokine receptor type 6 (Homo sapiens, UniProt P51684); assay: SAR analysis of small molecule antagonists of the CXCR6 receptor using a CCR6 receptor luminescent beta-arrestin counterscreen.; type: functional
T1 sequence (P51684 whole entry): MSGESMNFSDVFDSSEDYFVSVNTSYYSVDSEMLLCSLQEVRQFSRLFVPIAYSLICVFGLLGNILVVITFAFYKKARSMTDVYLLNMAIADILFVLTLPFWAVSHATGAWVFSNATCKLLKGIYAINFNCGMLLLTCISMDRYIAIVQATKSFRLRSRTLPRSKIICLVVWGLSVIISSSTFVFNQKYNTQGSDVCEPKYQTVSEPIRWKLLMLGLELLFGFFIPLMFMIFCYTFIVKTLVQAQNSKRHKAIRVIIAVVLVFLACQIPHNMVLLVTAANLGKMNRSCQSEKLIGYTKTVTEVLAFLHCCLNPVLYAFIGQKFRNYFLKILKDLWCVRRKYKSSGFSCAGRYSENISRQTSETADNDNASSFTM

[3] = molecular target: ATP-dependent translocase ABCB1 (Homo sapiens, UniProt P08183); assay: P-gp JC-1 efflux blockers potency – Jurkat-DNR cells, flow cytometry, follow-up, dose response (AID 489002); type: functional
Chain of ATP-dependent translocase ABCB1 (P08183 whole entry): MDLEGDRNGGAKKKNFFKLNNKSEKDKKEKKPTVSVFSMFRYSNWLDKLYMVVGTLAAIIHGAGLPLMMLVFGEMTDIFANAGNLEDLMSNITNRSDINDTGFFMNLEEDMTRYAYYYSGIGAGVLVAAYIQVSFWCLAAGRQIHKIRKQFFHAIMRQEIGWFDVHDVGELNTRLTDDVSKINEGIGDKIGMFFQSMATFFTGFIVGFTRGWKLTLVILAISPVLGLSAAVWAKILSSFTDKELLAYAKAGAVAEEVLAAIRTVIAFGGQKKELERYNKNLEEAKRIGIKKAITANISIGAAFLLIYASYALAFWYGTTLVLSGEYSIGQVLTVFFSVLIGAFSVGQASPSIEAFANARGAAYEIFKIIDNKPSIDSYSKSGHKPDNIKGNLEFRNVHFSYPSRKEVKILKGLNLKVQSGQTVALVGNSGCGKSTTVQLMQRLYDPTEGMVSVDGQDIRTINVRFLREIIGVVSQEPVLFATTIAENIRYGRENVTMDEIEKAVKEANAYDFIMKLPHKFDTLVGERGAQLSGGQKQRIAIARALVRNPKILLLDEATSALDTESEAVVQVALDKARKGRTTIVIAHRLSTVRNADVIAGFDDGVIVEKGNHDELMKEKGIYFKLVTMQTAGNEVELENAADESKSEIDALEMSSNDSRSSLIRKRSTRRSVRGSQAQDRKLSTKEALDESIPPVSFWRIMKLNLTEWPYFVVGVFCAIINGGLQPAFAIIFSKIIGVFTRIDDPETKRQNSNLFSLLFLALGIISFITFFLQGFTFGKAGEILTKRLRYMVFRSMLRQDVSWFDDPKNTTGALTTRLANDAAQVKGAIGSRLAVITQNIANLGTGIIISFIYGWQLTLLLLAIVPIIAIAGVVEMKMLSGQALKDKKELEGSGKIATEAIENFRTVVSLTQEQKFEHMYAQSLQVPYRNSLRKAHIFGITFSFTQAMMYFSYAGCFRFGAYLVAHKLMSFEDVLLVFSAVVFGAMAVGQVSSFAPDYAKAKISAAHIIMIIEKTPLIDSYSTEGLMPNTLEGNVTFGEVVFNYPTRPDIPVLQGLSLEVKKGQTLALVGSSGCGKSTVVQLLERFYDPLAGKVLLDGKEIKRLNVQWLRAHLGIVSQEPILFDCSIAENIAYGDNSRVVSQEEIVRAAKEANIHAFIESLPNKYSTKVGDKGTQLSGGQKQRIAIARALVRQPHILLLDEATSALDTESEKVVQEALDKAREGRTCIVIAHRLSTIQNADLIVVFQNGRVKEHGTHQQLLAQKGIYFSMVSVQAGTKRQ

[4] = intracellular Trypanosoma cruzi inhibitors in host cells – cell-based, plate reader, cherry-pick samples, set 3, dose response (AID 651818); type: functional;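 note: compounds incubated with infected cells for about four days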
[5] = molecular target: Endoplasmic reticulum aminopeptidase 2 (Homo sapiens, UniProt Q6P179); assay: inhibition of ERAP2 arginine-AMC cleavage – biochemical, fluorescence plate reader, cherry-picked, set 2, selectivity assay for selective ERAP1 modulator project, dose response (AID 743320)
Chain of Endoplasmic reticulum aminopeptidase 2 (Q6P179 whole entry): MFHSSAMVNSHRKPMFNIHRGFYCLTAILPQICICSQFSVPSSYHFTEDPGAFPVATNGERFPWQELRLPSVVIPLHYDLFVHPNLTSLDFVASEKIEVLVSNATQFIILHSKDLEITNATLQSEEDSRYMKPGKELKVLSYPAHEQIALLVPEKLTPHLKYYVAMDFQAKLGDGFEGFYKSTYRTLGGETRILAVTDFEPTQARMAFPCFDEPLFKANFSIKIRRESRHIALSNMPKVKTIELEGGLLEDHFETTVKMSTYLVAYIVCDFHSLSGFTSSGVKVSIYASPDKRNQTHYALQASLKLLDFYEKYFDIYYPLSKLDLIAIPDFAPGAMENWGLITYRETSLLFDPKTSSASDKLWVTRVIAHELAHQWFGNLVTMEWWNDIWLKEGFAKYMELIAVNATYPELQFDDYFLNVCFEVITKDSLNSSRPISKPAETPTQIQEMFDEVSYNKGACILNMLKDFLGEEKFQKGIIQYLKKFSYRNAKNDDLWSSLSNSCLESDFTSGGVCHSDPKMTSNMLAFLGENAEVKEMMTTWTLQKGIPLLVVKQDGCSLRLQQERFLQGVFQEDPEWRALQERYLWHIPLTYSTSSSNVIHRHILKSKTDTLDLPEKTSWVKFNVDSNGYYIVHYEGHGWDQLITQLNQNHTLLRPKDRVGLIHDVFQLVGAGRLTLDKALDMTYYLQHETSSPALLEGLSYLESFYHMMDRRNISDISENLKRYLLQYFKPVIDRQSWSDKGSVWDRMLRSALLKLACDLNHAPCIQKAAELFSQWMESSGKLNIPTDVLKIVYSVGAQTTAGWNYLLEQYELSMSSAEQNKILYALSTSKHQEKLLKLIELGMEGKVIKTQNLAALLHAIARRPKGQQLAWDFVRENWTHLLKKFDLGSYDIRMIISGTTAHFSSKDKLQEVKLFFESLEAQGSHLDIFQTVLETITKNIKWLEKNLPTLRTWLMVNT

[6] = inhibition of mouse IRAP aminopeptidase activity – biochemical, Leu-AMC fluorescence, cherry-picked samples, set 2, selectivity assay for ERAP1 modulator project, dose response (AID 743340)
[7] = molecular target: E3 ubiquitin-protein ligase Mdm2 (Homo sapiens, UniProt Q00987); assay: MDM2-luc reporter signal enhancers, multi-concentration potency testing, MDM2 ubiquitin-protein ligase inhibitor program, whole-cell format, luminescence detection, 384-well microplate (AID 1394); type: functional;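 note: MDM2 E3 inhibitors raise luminescence so EC50 is for signal enhancement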
Chain of E3 ubiquitin-protein ligase Mdm2 (Q00987 whole entry): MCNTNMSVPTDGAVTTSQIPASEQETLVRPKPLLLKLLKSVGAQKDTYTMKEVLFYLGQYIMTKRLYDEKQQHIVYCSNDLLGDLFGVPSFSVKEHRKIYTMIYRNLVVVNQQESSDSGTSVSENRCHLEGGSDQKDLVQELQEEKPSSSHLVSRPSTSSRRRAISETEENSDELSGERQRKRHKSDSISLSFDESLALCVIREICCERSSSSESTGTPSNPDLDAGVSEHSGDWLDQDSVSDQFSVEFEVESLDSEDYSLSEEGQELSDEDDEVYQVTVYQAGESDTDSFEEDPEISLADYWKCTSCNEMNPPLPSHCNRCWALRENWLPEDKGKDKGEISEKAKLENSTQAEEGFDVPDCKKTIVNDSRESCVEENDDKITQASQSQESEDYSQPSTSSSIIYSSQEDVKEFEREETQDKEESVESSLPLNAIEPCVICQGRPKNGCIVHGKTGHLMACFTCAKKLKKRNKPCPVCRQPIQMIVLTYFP

[8] = viability of PTEN-deleted HCT116 cells – cell-based, HCT116 PTEN knockout, dose response (AID 1047); type: functional;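 note: HCT116 colon tumor cells with PTEN knocked out; cells exposed to compound for 60 hours before readout; potency for loss of cell viability measured by luminescence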
[9] = viability of HCT116 lacking mutant beta-catenin – cell-based, human colon tumor, dose response (AID 1045); type: functional;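 note: HCT116 colon tumor cells with beta catenin knocked out; cells exposed to compound for 60 hours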
[10] = Luminescence Cell-Based Dose Retest to Confirm Inhibitors of Cancer Stem Cells. [Related pubchem assays (depositor defined):AID2717, AID2721]; type: functional; details: Homo sapiens
[11] = molecular target: T2, Microphthalmia-associated transcription factor (Homo sapiens, UniProt O75030); assay: reducers of TRPM1 reporter luminescence, concentration series – cell-based, SK-MEL-5, cherry-picked, set 3, MITF inhibitor project, dose response (AID 493073); type: functional;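 note: SK-MEL-5 melanoma cells with luciferase driven by the MITF target TRPM1 promoter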
T2 sequence (O75030 whole entry): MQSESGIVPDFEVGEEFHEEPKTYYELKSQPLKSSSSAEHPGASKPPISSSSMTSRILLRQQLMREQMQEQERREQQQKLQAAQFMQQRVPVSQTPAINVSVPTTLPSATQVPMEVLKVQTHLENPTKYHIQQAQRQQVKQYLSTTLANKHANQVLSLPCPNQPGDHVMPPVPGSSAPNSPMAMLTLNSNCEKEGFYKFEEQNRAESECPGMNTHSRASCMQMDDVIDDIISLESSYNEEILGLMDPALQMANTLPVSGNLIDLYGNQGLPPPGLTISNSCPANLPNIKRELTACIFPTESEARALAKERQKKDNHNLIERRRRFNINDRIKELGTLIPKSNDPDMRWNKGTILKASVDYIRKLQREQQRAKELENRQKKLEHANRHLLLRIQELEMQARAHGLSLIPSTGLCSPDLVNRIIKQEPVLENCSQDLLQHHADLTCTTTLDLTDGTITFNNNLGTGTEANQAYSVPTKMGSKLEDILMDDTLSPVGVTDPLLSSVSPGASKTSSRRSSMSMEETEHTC

[12] = Fluorescence-based cell-based high throughput dose response assay for inhibitors of the interaction of nucleotide-binding oligomerization domain containing 2 (NOD2) and the receptor-interacting serine-threonine kinase 2 (RIPK2).; type: functional; details: Homo sapiens
[13] = reduced cellular PGC1a acetyl-lysine signal – cell-based, cherry-picked samples, dose response (AID 720514); type: functional;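 note: potency may reflect raised or lowered acetylation signal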

Chain of Kallikrein-7 (P49862 whole entry): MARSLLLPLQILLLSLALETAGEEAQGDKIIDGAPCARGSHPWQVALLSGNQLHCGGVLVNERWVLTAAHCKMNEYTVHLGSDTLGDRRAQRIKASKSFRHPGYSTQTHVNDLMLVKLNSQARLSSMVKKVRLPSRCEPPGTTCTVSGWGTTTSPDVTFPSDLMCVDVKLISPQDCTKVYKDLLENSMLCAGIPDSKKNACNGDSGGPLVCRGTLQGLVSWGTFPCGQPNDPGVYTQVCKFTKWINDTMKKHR

Q: Which EC50 (Kallikrein-7) does the source give for `CCNC(=O)/C(C#N)=C/c1c(N2CCN(c3ccccc3)CC2)nc2ccccn2c1=O` here?
A: Its EC50 is 34.8 µM (inactive).

Q: What does the source list for `COc1cc(C(=O)NC2CC3CCCC(C2)N3CC(=O)Nc2ccc(C)cc2)cc(OC)c1OC` (centres undefined)?
A: IC50 [1]: > 79 µM (inactive); IC50 [2]: > 79 µM (inactive)

Q: Which EC50 [3] does the source give for `CN(CCN(C)c1cc(-c2ccco2)nc2cc(-c3ccccc3)nn12)C(=O)c1ccoc1` here?
A: The EC50 was 0.0001485 µM.

Q: With `C[C@H](CO)N1C[C@H](C)[C@@H](CN(C)CC2CC2)Oc2c(NC(=O)Nc3ccc(C(F)(F)F)cc3)cccc2C1=O` as the molecule, how does the AC50 [4] read?
A: Its AC50 is 1.87 µM (active).

Q: And the AC50 [5]?
A: Its AC50 is > 22 µM (inactive).

Q: And the AC50 [6]?
A: Its AC50 is 16.9 µM (active).

Q: What does the source list for `O=C(Cn1ncc(Cl)c(Cl)c1=O)NCC1CCCCC1`?
A: EC50 [7]: 1.89 µM (active); EC50 [8]: 2.58 µM (active); EC50 [9]: 1.44 µM (active); AC50 [10]: 2.83 µM (active); AC50 [11]: 7.39 µM (active); IC50 [12]: 3.98 µM (active); AC50 [13]: 3.97 µM (active)
